{"source": "patent US20040219201A1", "about": "“Tempamine compositions and methods of use” (priority 2001, published 2004)", "key": {"[1]": {"experiment": "n-octanol/water partition coefficient (Kp)", "assay_type": "physicochemical", "details": "ammonium sulfate 0 mM; TMN 20 μmole"}, "[2]": {"experiment": "Lipid bilayer/aqueous phase distribution (dialysis membrane)", "assay_type": "physicochemical", "details": "no ammonium sulfate gradient", "procedure": "In another study, the partition of tempamine between the lipid bilayer and the aqueous phase was determined. The lipid bilayer/aqueous phase distribution was performed using a dialysis membrane separating the phases in 0.15 M NaCl (Samuni, A., et al., Free Radic Biol Med., 22:1165 (1997)). There was no predisposition of tempamine for the lipid bilayer over the 0.15 M NaCl aqueous phase and the distribution of tempamine was equal between the liposome preparation (10% egg phosphatidylcholine (EPC) (w/v)) and 0.15 M NaCl (data not shown)."}, "[3]": {"experiment": "Percent encapsulation of tempamine in liposomes (EPR)", "assay_type": "physicochemical", "details": "0.2 mM TMN", "procedure": "The amount of tempamine encapsulated in the liposomes was determined using EPR, as described in Example 3.\nEPR spectrometry was employed to detect tempamine concentration using a JES-RE3X EPR spectrometer (JEOL Co., Japan) (Fuchs, J., et al., Free Radic. Biol. Med. 22:967-976, (1997)). Samples were drawn by a syringe into a gas-permeable Teflon capillary tube of 0.81 mm i.d. and 0.05 mm wall thickness (Zeus Industrial Products, Raritan, N.J., USA). The capillary tube was inserted into a 2.5-mm-i.d. quartz tube open at both ends, and placed in the EPR cavity. EPR spectra were recorded with center field set at 329 mT, 100 kHz modulation frequency, 0.1 mT modulation amplitude, and nonsaturating microwave power. […]\nThe amount of entrapped tempamine of liposomes prepared according to Example 2 was determined by the following procedure. First, the total tempamine in the post-loading liposome preparation (TMNmix) was measured. Then, the amount of tempamine in the post-loading liposome preparation in the presence of potassium ferricyanide, an EPR broadening agent that eliminates the signal of free (non-liposomal) tempamine, was measured. […] Then the total temparifine after releasing it from liposomes by nigericin (TMNnigencia) was measured. […]\nThe percent encapsulation and the quenching factor were calculated as follows: […]"}, "[4]": {"tested_on": "M-109R (doxorubicin-resistant human breast carcinoma)", "experiment": "Cytotoxicity assay (methylene blue); tempamine alone or doxorubicin plus tempamine", "assay_type": "cell-based", "procedure": "(§1) As described in Example 1, the cytotoxicity of tempamine was determined on three cell lines, MCF-7 (human breast adenocarcinoma), M-109S (doxorubicin-sensitive human breast carcinoma), and M-109R (doxorubicin-resistant human breast carcinoma). The effect of free tempamine on cell proliferation was determined by a methylene blue assay as described in Example 1B.\n(§2) In yet another aspect, the invention contemplates administration of tempamine in combination with chemotherapeutic agent. […] Doxorubicin was chosen as a model chemotherpeutic agent. The enhancement of doxorubicin cytotoxicity by tempamine was tested on three cell lines, as described in Example 1A. A cytotoxicity assay as described in Example 1B was used. Two of the cell lines, MCF-7 and M-109S, were doxorubicin-sensitive lines and one cell line, M-109R, was doxorubicin resistant. MCF-7 cells are more sensitive to tempamine (100 μM caused 75% growth inhibition), but are less sensitive to doxorubicin, than are M-109S cells.\n(§3) MCF-7 (human breast adenocarcinoma), M-109S (doxorubicin-sensitive human breast carcinoma), and M-109R (doxorubicin-resistant human breast carcinoma) were maintained in RPMI medium (Biological Industries, Beit HaEmek, Israel) supplemented with 10% fetal calf serum (FCS). The cell lines were maintained under standard culture conditions at 37° C. in a humidified 5% CO2 atmosphere.\n(§4) The effect of tempamine on cell proliferation was determined by the methylene blue assay (Horowitz, A. T., et al., Biochim BiophysActa. 1109:203, (1992)). Briefly, cells were seeded onto 96-well plates (MCF cells at a density of 6×10^3 cells per well, and M-109S and M-109R at a density of 1.5×10^3 cells per well) and allowed to grow for 24 hours prior to treatment with different concentrations of tempamine. After the addition of tempamine (5×10^−5 to 4×10^−4), the cells were incubated in RPMI +10% FCS for four days without change of medium. Then the cells were fixed with 2.5% glutaraldehyde, stained with methylene blue and assayed spectrophotometrically."}, "[5]": {"tested_on": "M-109S (doxorubicin-sensitive human breast carcinoma)", "experiment": "Cytotoxicity assay (methylene blue); tempamine alone or doxorubicin plus tempamine", "assay_type": "cell-based", "details": "Homo sapiens, read-out: IC50 (cytotoxicity)", "procedure": "as §1, §2, §3, §4"}, "MCF-7 cancer cells": {"tested_on": "MCF-7 cancer cells", "experiment": "Apoptosis detection by merocyanine-540 staining and flow cytometry", "assay_type": "cell-based, human", "details": "MCF-7, 1 mM tempamine, 24 hours; 14% without treatment", "text": "In another study, the MCF-7 cell line was used to investigate the mechanism of growth inhibition by tempamine. Untreated cells and tempamine-treated cells (24-hours exposure) were contacted with merocyanine-540. Merocyanine-540 binds selectively to phophatidylserine, which appears at the external surface of the cell at the beginning of apoptosis and is therefore one of the apoptotic markers (Reid, S., et al., J. lmmnol. Methods 192:43 (1996)). After interaction with merocyanine-540, cells were analyzed by flow cytometry as described in the methods section below. […] After the 24 hour treatment period, the cells were trypsinized, stained with merocyanine-540 and analyzed by flow cytometry. […]\nApoptosis was assessed by flow cytometry (FACScan). 1×10^6 cells were removed from culture, washed with PBS, and stained with merocyanine-540 (Reid, S., et al., J. Immunol. Methods 192:43 (1996). Briefly, the cell pellet was resuspended in 500 μl PBS. 2.5 μl of a 1 mg/ml solution of merocyanine-540 was added to the cells, incubated for 2 min at room temperature in the dark. The cells were washed, resuspended in 1 ml PBS, and run immediately on a fluorescence-activated cell-sorting flow cytometer (Vantage, Becton Dickinson, Rutherford, N.J., USA)."}}, "data": [{"smiles": "CC1(C)CC(N)CC(C)(C)N1[O]", "note": "[tempamine, 2,2,6,6-tetramethylpiperidine-4-amino-1-oxyl]", "values": [{"measurement": "n-octanol/aqueous phase (Kp), pH 4", "setting": "[1]", "value": 0.111}, {"measurement": "n-octanol/aqueous phase (Kp), pH 10.6", "setting": "[1]", "value": 2.331}, {"measurement": "distribution between liposome preparation (10% EPC w/v) and 0.15 M NaCl", "setting": "[2]", "value": "equal"}, {"measurement": "% Encapsulation ± S.D.", "setting": "[3]; liposomes with NH4+ gradient", "value": "84.1 ± 8.4^3%"}, {"measurement": "% Encapsulation ± S.D.", "setting": "[3]; liposomes without NH4+ gradient", "value": "6 ± 0.6", "unit": "%"}, {"measurement": "IC50", "setting": "[4]; Homo sapiens, read-out: IC50 (cytotoxicity)", "value": "~700", "unit": "µM"}, {"measurement": "cell sensitivity to doxorubicin", "setting": "[4]; M-109R, addition of 200 μM tempamine", "value": "enhanced cell sensitivity to doxorubicin"}, {"measurement": "IC50", "setting": "[5]", "value": "~700", "unit": "µM"}, {"measurement": "fluorescently labeled (apoptotic) cells", "setting": "MCF-7 cancer cells", "value": 77, "unit": "%"}]}]}
